Patent publication US20090317419A1, “Tetramers” (Duke University, priority 2008, published 2009)
Where two headings read alike, the source gives them in different places. Ends that are not written are not given here. * marks the point of attachment. Biotin = O=C1N[C@H]2[C@H](CS[C@H]2CCCCC(=O)*)N1

Tested on: CD19+ B cells of HIV-1 infected subject
Experimental: Staining of bulk populations for the sorts. Cells from uninfected or HIV-1 infected patients were obtained by leukopheresis under an IRB-approved protocol and were rested in culture overnight in 10% FBS in RPMI-1640 at 37° C. in 5% CO2. Rested cells were enriched for B cells by depletion of non-B cells using magnetic bead separation (BD Biosciences, Mountain View, Calif.). […] Cells were sorted on a BD FACS Aria (BD Biosciences, Mountain View, Calif.) into CD3^− CD14^− CD16^− CD19^+ tetramer and CD3^− CD14^− CD16^− CD19^+ tetramer^+ pools and also as single cells into a 96-well plates containing RNA extraction buffer.

Biotin-GGGQQEKNEQELLELDKWASLWN [gp41 MPER tetramer]
tetramer positive cells of CD19+ B cells (before sorting, non-B cell depleted PBMC): 0.15%
tetramer positive cells of CD19+ B cells (reanalysis after sorting of tetramer positive gate): 45.3%
